# In US11576913B2 (priority 2018, dated 2023):
# Read-outs that look alike come from different tables or passages of the source.
# What was measured:
# [1] = tested on: subjects suffering from the Insomnia Disorder adult insomnia; type: in vivo, human
# Procedure: Following the evening-time dosing with study drug, subjects underwent eight hours of continuous PSG recording. Next-day residual effects were assessed by the DSST and the KSS evaluation, collected in that order, starting at approximately 30 minutes after “lights-on.” All tests were administered in the clinical unit, beginning 30 minutes after lights-on and periodically thereafter for approximately 16 hours post-lights-off, following completion of PSG recording. Each subject also completed a post-sleep questionnaire once after lights-on so that subjective impressions could be assessed about the “quality” and “quantity” of their sleep. Before the second night dosing in each dosing period, subjects were evaluated for any residual sleepiness. […] Subjects remained in the clinic until residual symptoms were minimized.
# The well-known KSS measures, subjectively, the level of a subject's sleepiness at a specific time of the day and was therefore useful as another indication of next day residual effects, if any. The KSS comprised a 9-step scale (ranging from, e.g., “extremely alert” (assigned 1 point) to alert (assigned 3 points) to “neither sleepy nor alert” (assigned 5 points) to “sleepy” (assigned 7 points) to “extremely sleepy” (assigned 9 points)) that characterized sleepiness at a particular time during the day (within 5 minutes of the assessment).
# In a paper-and-pencil evaluation, each subject checked a box corresponding to the point of the scale that best characterized their state of drowsiness experienced during the preceding 5 minutes. The KSS evaluation followed the DSST after each night of the baseline visit (Visit 2) and after each night of Dosing Periods 1-5 according to the schedule set out in the previous example.
# The KSS evaluation results shown, other than for the baseline, are the mean results obtained from the KSS evaluation scores following all nights of Dosing Periods 1-5 for the indicated dose. The KSS evaluation results for the baseline are the mean results obtained following the first and second nights of the baseline visit. Note that for clarity of display purposes, in FIG. 7 many of the test results at each time period, e.g., at approximately ½ hour after lights-on/9 hours post-dosing, were staggered arbitrarily away from the actual time when the test was conducted.
# clinical = type: in vivo, human; conditions: for mean fraction of dose excreted unchanged in urine over 48 hours (Fe48): day 1; for mean fraction of dose excreted unchanged in urine over 24 hours (Fe24): day 16
# [2] = type: in vivo, rat; conditions: within 48 hours of oral dosing
# Excerpt: Specifically, liquid scintillation counting (“LSC”) was used for the determination of total radiolabeled Compound (1C) material, i.e., the original or parent compound and its metabolites. […] Using ^14C as a radiolabel for pharmacokinetic studies is a recognized technique and embedding the radiolabel into the ring structure was done to limit migration or exchange of the radiolabel to non-Compound (1C)-related molecules. The specific radioactivity for the lot of [^14C]-Compound (1C) synthesized was 2.50 MBq/mg (67.6 μCi/mg) [3.49 MBq/mg (94.4 μCi/mg) if the material were to be present as the free base form] with a radiochemical purity of greater than 98.5% as determined by HPLC. The synthesized radiolabeled [^14C]-Compound (1C) was stored away from light at a temperature of −80° C. before use.
# Following oral administration of [^14C]-Compound (1C) (in an appropriate vehicle, e.g., a methyl cellulose suspension) to the experimental animals, excreta samples were collected over specified time intervals. Urine samples were collected at fixed intervals post dosing. Fecal samples were homogenized and diluted prior to being solubilized. Aliquots of these samples were counted following the addition of liquid scintillation fluid thereto. Detection limits for radioactivity in the excreta samples were set at twice the background count (from blank samples) as determined by LSC. The [^14C]-Compound (1C) was stable for about 4-5 hours in urine at a temperature of about 25° C. and, when kept refrigerated at 4° C., for up to 15 days (rat urine) and 36 days (dog urine). Recovery of [^14C]-Compound (1C) from rat urine was typically from about 91.6 to about 99.1%.
# [3] = type: in vivo, human; conditions: Compound (1C) tablets administered orally
# Excerpt: The comparators in an abuse potential study are typically controlled substances from the same pharmacologic class as the investigational drug. However, Compound (1C) is a novel drug class for which no controlled substances/drugs of abuse are available for comparison. […] There was no evidence of other effects of interest to abusers, such as perceptual disturbances or stimulation. […] Placebo control was used to establish the frequency and magnitude of changes in clinical endpoints that may occur in the absence of active treatment as well as to minimize subject and investigator bias.
# [4] = not given; remark: listed apart in the source
# [5] = 0.2 mg aqueous suspension (N =24)
# [6] = 0.6 mg aqueous suspension (N =24)
# [7] = 2.0 mg aqueous suspension (N =23)
# [8] = 6.0 mg aqueous suspension (N =25)
compound,measurement,setting,value
O=C(O)c1nc2ccccc2n([C@H]2C[C@H]3CCC[C@@H](C2)N3C2CC3CCCC(C3)C2)c1=O (stereo partly drawn) [Compound (1C)],next day residual effects by mean KSS evaluation results vs placebo,"[1]; 0.5 mg, about 9 to about 16 hours post-dosing",no next day residual effects
same,next day residual effects by mean KSS evaluation results vs placebo,"[1]; 1.0 mg, about 9 to about 16 hours post-dosing",no next day residual effects
same,next day residual effects by mean KSS evaluation results vs placebo,"[1]; 3.0 mg, each of the testing times",some next day residual effects
same,next day residual effects by mean KSS evaluation results vs placebo,"[1]; 6.0 mg, each of the testing times",some next day residual effects
same,mean fraction of dose excreted unchanged in urine over 48 hours (Fe48),clinical; 0.6 mg,96%
same,mean fraction of dose excreted unchanged in urine over 24 hours (Fe24),clinical; 0.6 mg,90%
same,mean fraction of dose excreted unchanged in urine over 48 hours (Fe48),clinical; 2 mg,100%
same,mean fraction of dose excreted unchanged in urine over 24 hours (Fe24),clinical; 2 mg,102%
same,mean fraction of dose excreted unchanged in urine over 48 hours (Fe48),clinical; 10 mg,84%
same,mean fraction of dose excreted unchanged in urine over 24 hours (Fe24),clinical; 10 mg,81%
same,time of urinary excretion of most of the unchanged compound,"clinical; across the dose range, days 1 and 16",during the first 8 hours
same,CL renal,"clinical; human, in vivo, all dose levels, days 1 and 16, read-out: mean CLr",274 to 354 mL/min
same,"Average % Elimination, Fecal",[2]; Rat (female),27.9%
same,"Average % Elimination, Fecal + Urinary",[2]; Rat (female),94.7%
same,"Average % Elimination, Urinary",[2]; Rat (female),66.8%
same,"Average % Elimination, Fecal",[2]; Rat (male),41.6%
same,"Average % Elimination, Fecal + Urinary",[2]; Rat (male),96.0%
same,"Average % Elimination, Urinary",[2]; Rat (male),54.4%
same,Time to maximum concentration,[3],approximately 1.5 hours
same,Mean % Dose Excreted Unchanged,"Cohort 1, 3 mg",89%
same,Mean Total Amount Excreted Unchanged,"Cohort 1, 3 mg",2.66 mg
same,Mean % Dose Excreted Unchanged,"Cohort 2, 10 mg",70%
same,Mean Total Amount Excreted Unchanged,"Cohort 2, 10 mg",6.95 mg
same,Mean % Dose Excreted Unchanged,"Cohort 3, 30 mg",28%
same,Mean Total Amount Excreted Unchanged,"Cohort 3, 30 mg",8.37 mg
same,"Ae, Mean",[4]; [5],0.2232 mg
same,"Fe, Mean (fraction of dose excreted unchanged in urine over 24 hours)",[4]; [5],111.60%
same,"Ae, Mean",[4]; [6],0.6891 mg
same,"Fe, Mean (fraction of dose excreted unchanged in urine over 24 hours)",[4]; [6],114.84%
same,"Ae, Mean",[4]; [7],2.165 mg
same,"Fe, Mean (fraction of dose excreted unchanged in urine over 24 hours)",[4]; [7],108.26%
same,"Ae, Mean",[4]; [8],6.653 mg
same,"Fe, Mean (fraction of dose excreted unchanged in urine over 24 hours)",[4]; [8],110.88%
